Data set [1] relates to adult uncontrolled gout patients. Kind of data set: MIRROR-C: open-label trial of canakinumab prophylaxis to prevent gout flares when initiating pegloticase+MTX. The format is in vivo, human. The source says:
86. Pegloticase plus methotrexate (approved by FDA in July 2022) is effective at reducing signs/symptoms of uncontrolled gout. In the pivotal trial (MIRROR RCT) the most common adverse event was gout flares which occurred in 54% of patients at month 1 on combination pegloticase and methotrexate. The purpose of this study is to determine if canakinumab is effective for the prevention of gout flares in subjects scheduled to begin KRYSTEXXA® (KRY) (pegloticase) infusions in combination with methotrexate. The most common adverse event that occurs in patients being treated with KRY and methotrexate are gout flares which occurred in 54% of patients at month 1 in the MIRROR RCT. Herein we use canakinumab pretreatment (without corticosteroids, NSAIDs, or colchicine) to reduce the number of gout flares.
87 Canakinumab is the drug that is tested herein. It is currently approved by the FDA for the treatment of periodic fever syndromes and active systemic juvenile idiopathic arthritis (SJIA). However, Canakinumab is considered to be experimental in this study. Subjects scheduled (by their treating provider) to receive pegloticase (with methotrexate) receive a single 150 mg injection of subcutaneous canakinumab one week prior to the first scheduled pegloticase infusion. The combination of the drugs is experimental. As shown herein,
88. Subjects scheduled (by their treating provider) to receive pegloticase (with methotrexate) receive a single 150 mg injection of subcutaneous canakinumab one week prior to the first scheduled pegloticase infusion. At each infusion, subjects are assessed for gout flares. Canakinumab are provided by the study to subjects without charge. Pegloticase, methotrexate, and other medications are obtained through standard means (patient insurance, patient assistance, etc.) as ordered by treating provider. […] It is assumed that mobilization of gout crystals at the initiation of therapy results in gout flares through the IL-1 inflammasome pathway. A goal of prophylaxis is to reduce the number of flares with initiation. […]
89. […] On the day of KRYSTEXXA® administration (i.e., Day 0), the blood pressure, respiratory rate, temperature, and heart rate of patients are measured and patients receive a first administration of KRYSTEXXA® delivered as an intravenous (i.v.) infusion. Every two weeks thereafter during the study (i.e., Day 14, Day 28, Day 42, Day […], Day 98, Day 112, Day 126, Day 140, Day 154, Day 168; also called Week 2, Week 4, Week 6, Week 8, Week 10, Week 12, Week 14, Week 16, Week 18, Week 20, Week 22, Week 24) the blood pressure, respiratory rate, temperature, and heart rate of patients are measured and patients report any gout flares. […]

The subject of data set [2] is gout patients initiating allopurinol. The following applies: cited from earlier work; for risk of gout flares during allopurinol initiation: in vivo.
Data set [3] concerns the target human IL1β (Homo sapiens, UniProt P01584). The following applies: blocks interaction with IL-1 receptors; cited from earlier work.
The target in data set [4] is T1, IL-1α (Homo sapiens, UniProt P01583).
T1 sequence (P01583 113-271): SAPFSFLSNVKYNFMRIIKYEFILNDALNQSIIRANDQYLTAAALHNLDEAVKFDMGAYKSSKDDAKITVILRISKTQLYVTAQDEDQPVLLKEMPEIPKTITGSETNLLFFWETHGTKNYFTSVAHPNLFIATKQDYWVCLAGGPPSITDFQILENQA
The following applies: cited from earlier work.

The target of data set [5] is IL-1 receptor antagonist (IL-1ra) (Homo sapiens, UniProt P18510). The following applies: cited from earlier work.
IL-1 receptor antagonist (IL-1ra), sequence (P18510 26-177): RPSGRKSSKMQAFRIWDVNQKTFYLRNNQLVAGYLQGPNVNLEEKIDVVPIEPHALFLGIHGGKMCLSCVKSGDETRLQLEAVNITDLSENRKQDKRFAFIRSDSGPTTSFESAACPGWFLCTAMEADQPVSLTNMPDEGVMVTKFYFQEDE

Entries after “also recorded” stand apart in the source; their conditions may differ. Read-outs that look alike come from different tables or passages of the source.

With canakinumab, the “time to resolution of active gout flares after administration” value in data set [1] (canakinumab 150 mg s.c.) is no more than 48 h. In data set [1] (canakinumab prophylaxis without corticosteroids, initiation of pegloticase with methotrexate), the “treated patients in whom gout flares were prevented” value is listed as 100%. Also, the “safety of canakinumab prophylaxis with pegloticase+MTX” value in data set [1] (single 150 mg dose, without CS) is reported as “no new safety signals; also recorded: did not compromise efficacy or safety”. Further, in data set [1] (single 150 mg s.c. dose 7 days before first pegloticase infusion, no CS, NSAIDs or colchicine, assessed every 2 wks for 6 mos), the “new gout flares after canakinumab prophylaxis” value was “No new gout flares; also recorded: prevented gout flares in all patients”. For the same substance, the “risk of gout flares during allopurinol initiation” value in data set [2] is recorded as “reduces the risk of flares”; in data set [2] (listed as Canakinumab), “can reduce subsequent flares”. Besides, the “prophylaxis against flares compared to colchicine” value in data set [2] (single dose ≥50 mg, initiating allopurinol) is recorded as “superior prophylaxis”. Further, the “binding to human IL1β” value in data set [3] is “binds to human IL1β and neutralizes its activity”. Besides, in data set [4], the “binding to IL-1α” value is recorded as “does not bind”. Also, the “binding to IL-1 receptor antagonist (IL-1ra)” value in data set [5] is “does not bind”.

Values taken from patent US12715915B2, “Gout flare prevention methods using IL-1β blockers” (priority 2022, dated 2026).
